In data set [1] the test system is HeLa cells. The experiment in a line: Caspase-3 activity in HeLa cells. The data set is classed as cell-based, human. The settings on record: rescued by Bcl-XL overexpression and 10 micromolar Ac-DEVD-CHO. The method, then:
FIGS. 12-14. Inhibition of Granaticin A Induced Caspase-3 Activity in HeLa cells. Growth curves in the presence of the indicated micromolar concentrations of granaticin A were performed and caspase-3 activity was measured following addition of a substrate that when cleaved by caspase-3 results in light emission which is quantitated by a fluorimeter (y-axis) as a function of time (x-axis).

Data set [2] concerns HeLa cells. The experiment in a line: S phase checkpoint western blot analysis. It is filed as cell-based, human. As to the method:
FIG. 15. […] HeLa cells were incubated in the presence of granaticin A or carrier control (DMSO) for the indicated times and whole cell extracts were subjected to SDS-PAGE and western blot analysis. Asyn=asynchronously growing HeLa cells. HU=HeLa cells exposed to hydroxyurea for the indicated time. HU was used as a control for DNA damaging agent that is known to […] the DNA damage checkpoint response. Again, we observed that Mcm2 mobility is shifted in the cells treated with granaticin A. MCM2 mobility is not affected by HU. Activation of the DNA damage/replication checkpoint correlates with ATM/ATR dependent phosphorylation of Chk1 at Ser345.

The next data set relates to PhALL3.1. The experiment in a line: SCID-Beige mouse intraperitoneal tumor model of PhALL3.1. It is filed as in vivo. As to the method:
FIGS. 19A-19B. Granaticin A Inhibits growth of PhALL3. 1 in vivo: Using a SCID-Beige mouse intraperitoneal tumor model of PhALL3.1, mice were intraperitoneally treated with vehicle control (DMSO) or the indicated doses of granaticin A on days 3, 6, 9, and 12. Day 16 in vivo bioluminescence imaging (FIG. 19A) and quantitation of tumor volume are shown (FIG. 19B) and indicate 90% reduction in tumor volume by Day 16 in mice treated at the highest dose (3.0 mg/kg).

In a further data set the test system is A459 cells. The experiment in a line: Nude mouse xenograft, non small-cell lung cancer. The data set is classed as in vivo. The note with it: 2.5 mg/kg/day continuous, osmotic diffusion pumps; sections at day 28. The method, then: FIG. 22A-22C. Granaticin B is Effective Against Multiple Solid Tumors: granaticin B is efficacious against mouse models of melanoma (FIG. 22A), non-small cell lung cancer (FIG. 22B), and ovarian cancer (FIG. 22C). For the ovarian cancer experiments, SCID-Beige mice were injected with 5 million OVCAR3 cells that had been transduced with a GFP-firefly luciferase expressing plasmid (Frattini, M. G. and Brentjens, R. J., unpublished data). These cells were then injected intraperitoneally into 4 cohorts of mice on Day 1. From days 7-14 the mice were injected daily with the indicated concentrations of granaticin B in the intraperitoneal space. […] Nude mice were treated with 2.5 mg/kg/day granaticin B in a continuous fashion using osmotic diffusion pumps. Sections of the treated xenografts are shown after euthanasia at day 28 and H&E staining.

Molecules are shown by their SMILES.

With `CC1OC2CC(O)C1(O)c1c(O)c3c(c(O)c12)C(=O)C1=C(C3=O)[C@H](C)O[C@H]2CC(=O)O[C@@H]12` (stereo partly shown) [Granaticin A, granaticin A], the caspase-3 activity result with HeLa cells [1] was “activation of caspase-3 and apoptosis”. Besides, the “double strand DNA breaks” value in the data set on HeLa cells [2] (HeLa cells) is given as “increased double strand DNA breaks”. The Mcm2 mobility result in the data set on HeLa cells [2] (SDS-PAGE and western blot) was “shifted”. Moreover, the “S phase checkpoint activation” value in the data set on HeLa cells [2] (western blot, Chk1 Ser345) was “does not activate the S phase checkpoint”. The “organ toxicity at necropsy” value in the data set with PhALL3.1 (all mice examined at each dose level) was “no significant (grade 2 or higher) organ toxicity”. Besides, the “reduction in tumor volume” value in the data set with PhALL3.1 (highest dose 3.0 mg/kg intraperitoneally on days 3, 6, 9, 12, Day 16 bioluminescence imaging) is 90%.

With `CC1OC2CC(O[C@H]3CC[C@H](O)[C@H](C)O3)C1(O)c1c(O)c3c(c(O)c12)C(=O)C1=C(C3=O)[C@H](C)O[C@H]2CC(=O)O[C@@H]12` (stereo partly shown) [Granaticin B, granaticin B], the “efficacy in mouse model of non-small cell lung cancer” value in the data set with A459 cells is recorded as “efficacious”.

These data come from patent US20210283099A1, “CDC7 KINASE INHIBITORS AND USES THEREOF” (SLOAN-KETTERING INSTITUTE FOR CANCER RESEARCH, priority 2010, published 2021).
